Laboratory results: PubChem BioAssay (NCI)
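Assay format: 96-well plates, 48-hour exposure. TGI denotes the concentration required for complete inhibition of growth.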

Assays:
Test in all cases: NCI-60 cell line screen, 48 h
[1] = system: MALME-3M melanoma
[2] = system: SK-MEL-28 melanoma
[3] = system: HS 578T breast
[4] = system: T-47D breast
[5] = system: NCI-H23 lung
[6] = system: IGROV1 ovarian
[7] = system: MDA-N
[8] = system: HOP-62 NSCLC
[9] = system: OVCAR-3 ovarian
[10] = system: UACC-62 melanoma
[11] = system: COLO 205 colon
[12] = system: U251 CNS
[13] = system: SNB-19 CNS
[14] = system: HCT-116 colon
[15] = system: UACC-257 melanoma
[16] = system: SF-295 CNS
[17] = system: K-562 leukemia
[18] = system: MDA-MB-231 breast
[19] = system: 786-0 renal
[20] = system: MOLT-4 leukemia
[21] = system: KM12 colon
[22] = system: CAKI-1 renal
[23] = system: M14 melanoma
[24] = system: NCI-H226 lung
[25] = system: SN12C renal
[26] = system: MDA-MB-435
[27] = system: PC-3 prostate
[28] = system: RXF 393 renal
[29] = system: EKVX NSCLC
[30] = system: RPMI-8226 leukemia
[31] = system: SK-MEL-2 melanoma
[32] = system: SK-OV-3 ovarian
[33] = system: HCT-15 colon
[34] = system: CCRF-CEM leukemia
[35] = system: HT29 colon
[36] = system: HOP-92 NSCLC
[37] = system: BT-549 breast
[38] = system: OVCAR-4 ovarian
[39] = system: NCI/ADR-RES ovarian
[40] = system: SNB-75 CNS
[41] = system: A549 NSCLC
[42] = system: SK-MEL-5 melanoma
[43] = system: ACHN renal
[44] = system: TK-10 renal
[45] = system: A498 renal
[46] = system: SF-268 CNS
[47] = system: UO-31 renal
[48] = system: OVCAR-8 ovarian
[49] = system: SW-620 colon
[50] = system: NCI-H522 lung
[51] = system: LOX IMVI melanoma
[52] = system: OVCAR-5 ovarian
[53] = system: DU-145 prostate
[54] = system: HL-60(TB) leukemia
[55] = system: NCI-H460 lung
[56] = system: MCF7 breast
[57] = system: SR leukemia
[58] = system: SF-539 CNS
[59] = system: HCC-2998 colon

Measured: TGI

COc1ccc(/C=N/Nc2nnc3c(n2)c2ccccc2c2nn(-c4ccccc4Cl)nc23)cc1
> 100 µM: [1] | [2] | [3] | [4] | [5] | [6] | [7] | [8] | [9] | [10] | [11] | [12] | [13] | [14] | [15] | [16] | [17] | [18] | [19] | [20] | [21] | [22] | [23] | [24] | [25] | [26] | [27] | [28] | [29] | [30] | [31] | [32] | [33] | [34] | [35] | [36] | [37] | [38] | [39] | [40] | [41] | [42] | [43] | [44] | [45] | [46] | [47] | [48] | [49] | [50] | [51] | [52] | [53]

CC(C)=Nn1cnc2c1NC(C)(C)N=C2C(N)=O
> 10 µM: [3] | [54] | [5] | [6] | [7] | [55] | [9] | [12] | [13] | [15] | [16] | [17] | [19] | [56] | [20] | [21] | [23] | [24] | [26] | [57] | [28] | [29] | [34] | [37] | [38] | [58] | [40] | [41] | [42] | [43] | [44] | [46] | [47] | [48] | [50] | [52] | [53]
8.19 µM: [4]
7.64 µM: [18]

O=C1/C(=C/c2ccc(Cl)cc2)Oc2ccccc21
46.1 µM: [29]
89.5 µM: [48]
98.5 µM: [40]
12.6 µM: [22]
54.8 µM: [28]
48.8 µM: [58]
68 µM: [24]
29.7 µM: [19]
74.7 µM: [3]
42.1 µM: [42]
> 100 µM: [2] | [54] | [7] | [55] | [9] | [10] | [11] | [12] | [13] | [14] | [15] | [16] | [17] | [18] | [56] | [20] | [21] | [23] | [25] | [26] | [57] | [30] | [32] | [33] | [34] | [35] | [37] | [38] | [59] | [46] | [49]
35 µM: [41]
73.1 µM: [5]
30.4 µM: [47]
43.4 µM: [43]
53.3 µM: [8]
64.3 µM: [44]
40.3 µM: [53]
90.3 µM: [4]
34.5 µM: [50]

C[n+]1c(-c2ccc(/C=N/NC(=O)C(=O)N/N=C/c3ccc(-c4cn5ccccc5[n+]4C)cc3)cc2)cn2ccccc21
> 100 µM: [1] | [3] | [54] | [5] | [6] | [7] | [55] | [8] | [9] | [10] | [11] | [12] | [13] | [15] | [17] | [18] | [19] | [56] | [20] | [21] | [22] | [23] | [24] | [25] | [26] | [27] | [28] | [29] | [30] | [31] | [32] | [33] | [34] | [35] | [36] | [37] | [38] | [59] | [39] | [58] | [40] | [41] | [42] | [43] | [44] | [45] | [47] | [48] | [49] | [50] | [52] | [53]
